Starred links: 1 amine or outer side, 2 acyl side, 3 side chain; linkers in the order of their positions; H or OH if unused. Positions of bridges follow the written chain, without caps; N, C: chain ends. Non-standard residues stand in square brackets, D forms with d. Residues, ends and D or L forms follow the SMILES beside them. *: point of attachment. hPhe(3,5-F2-4-CF3) = N[C@@H](CCc1cc(F)c(C(F)(F)F)c(F)c1)C(=O)O; hPhe(3-Cl-4-CF3) = N[C@@H](CCc1ccc(C(F)(F)F)c(Cl)c1)C(=O)O; NMePhe(4-CF3) = CN[C@@H](Cc1ccc(C(F)(F)F)cc1)C(=O)O; NMeAbu(4,4,4-F3) = CN[C@@H](CC(F)(F)F)C(=O)O; NMePhe(4-Cl) = CN[C@@H](Cc1ccc(Cl)cc1)C(=O)O; NMePhe(4-Me) = CN[C@@H](Cc1ccc(C)cc1)C(=O)O; X54 = O=C([C@H](Cc1cccc(Br)c1F)N[*:1])[*:2]; Phe(3-I) = N[C@@H](Cc1cccc(I)c1)C(=O)O; Phe(4-F) = N[C@@H](Cc1ccc(F)cc1)C(=O)O; Pro(4,4-F2) = O=C(O)[C@@H]1CC(F)(F)CN1; NMeGly(cBu) = CN[C@H](C(=O)O)C1CCC1; NMeY = CN[C@@H](Cc1ccc(O)cc1)C(=O)O; NMeCha = CN[C@@H](CC1CCCCC1)C(=O)O; NMehLeu = CN[C@@H](CCC(C)C)C(=O)O; NMeChg = CN[C@H](C(=O)O)C1CCCCC1; NMeI = CC[C@H](C)[C@H](NC)C(=O)O; NMeD = CN[C@@H](CC(=O)O)C(=O)O; NMeL = CN[C@@H](CC(C)C)C(=O)O; NMeNva = CCC[C@H](NC)C(=O)O; NMeAbu = CC[C@H](NC)C(=O)O; NMeA = CN[C@@H](C)C(=O)O; NMeAib = CNC(C)(C)C(=O)O; Nle = CCCC[C@H](N)C(=O)O; Piperidide = C1CCN(*)CC1; Pra = C#CC[C@H](N)C(=O)O; Pyrrolidide = C1CCN(*)C1; Ac5c = NC1(C(=O)O)CCCC1; Aze = O=C(O)[C@@H]1CCN1; CF3 = FC(F)(F)*; Sar = CNCC(=O)O
target: T1, Kras and SOS1 (biotin-tagged human Kras loaded with GDP, His-tagged human SOS1) (Homo sapiens, UniProt P01116, G12D); test: Protein-protein interaction inhibition between Kras and SOS1 (KrasGl2D-SOS PPI) using AlphaScreen; format: binding; details: AlphaScreen; biotin-tagged human Kras loaded with GDP, His-tagged human SOS1; read-out: KRAS G12D-SOS PPI IC50
T1 construct: made in house; host or cells: E. coli (stated for Kras only)
Outline: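 Binding between SOS1 and Kras is detected as bead-proximity luminescence: illuminate Ni-conjugated donors (680 nm), collect 520-620 nm emission from streptavidin-conjugated acceptors; Kras carries biotin and GDP loaded after purification, SOS1 carries a His tag.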

T1 sequence (P01116 1-188 isoform P01116-2 G12D): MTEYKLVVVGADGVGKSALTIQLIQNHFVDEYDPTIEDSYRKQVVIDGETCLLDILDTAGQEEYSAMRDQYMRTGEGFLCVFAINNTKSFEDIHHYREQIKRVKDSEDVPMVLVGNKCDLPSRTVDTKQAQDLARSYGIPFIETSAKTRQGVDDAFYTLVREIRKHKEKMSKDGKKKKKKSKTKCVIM

Point of comparison: `C#CC[C@@H]1NC(=O)[C@H](Cc2cccc(I)c2)NC(=O)CN(C)C(=O)[C@H](Cc2ccc(OC(F)(F)F)cc2)N(C)C(=O)[C@@H]2CCN2C(=O)CN(C)C(=O)[C@H]([C@@H](C)CC)NC(=O)[C@H](CC(C)C)N(C)C(=O)C[C@@H](C(=O)N2CCCCC2)N(C)C(=O)[C@H](CC(C)C)NC(=O)C(C)(C)N(C)C1=O` [Compound 1298] ([NMeL]I[Sar][Aze][NMeY](CF3)[Sar][Phe(3-I)][Pra][NMeAib]L[NMeD]-Piperidide; lactam N-11), IC50 28 nM. Against it:
- C#CC[C@@H]1NC(=O)[C@H](Cc2cccc(I)c2)NC(=O)CN(C)C(=O)[C@H](Cc2ccc(OC(F)(F)F)cc2)N(C)C(=O)[C@@H]2CCN2C(=O)[C@H](C)N(C)C(=O)[C@H]([C@@H](C)CC)NC(=O)[C@H](CC(C)C)N(C)C(=O)C[C@@H](C(=O)N2CCCCC2)N(C)C(=O)[C@H](CC(C)C)NC(=O)C(C)(C)N(C)C1=O [Compound 1288] ([NMeL]I[NMeA][Aze][NMeY](CF3)[Sar][Phe(3-I)][Pra][NMeAib]L[NMeD]-Piperidide; lactam N-11) — within 1.5-fold, 31 nM
- CC[C@H](C)[C@@H]1NC(=O)[C@H](CCC(C)C)N(C)C(=O)C[C@@H](C(=O)N2CCCC2)N(C)C(=O)[C@H]([C@@H](C)CC)N(C)C(=O)C2(CCCC2)NC(=O)[C@@H]2CCCN2C(=O)[C@H](CCc2ccc(C(F)(F)F)c(Cl)c2)NC(=O)CN(C)C(=O)[C@H](Cc2ccc(C(F)(F)F)cc2)N(C)C(=O)[C@@H]2CCN2C(=O)[C@H](C)N(C)C1=O [Compound 1289] ([NMehLeu]I[NMeA][Aze][NMePhe(4-CF3)][Sar][hPhe(3-Cl-4-CF3)]P[Ac5c][NMeI][NMeD]-Pyrrolidide; lactam N-11) — 42-fold lower, 0.67 nM
- CC[C@H](C)[C@@H]1NC(=O)[C@H](C2CCC2)N(C)C(=O)C[C@@H](C(=O)N2CCCC2)N(C)C(=O)[C@H](C2CCCCC2)N(C)C(=O)C2(CCCC2)NC(=O)[C@@H]2CC(F)(F)CN2C(=O)[C@H](CCc2cc(F)c(C(F)(F)F)c(F)c2)NC(=O)CN(C)C(=O)[C@H](CC2CCCCC2)N(C)C(=O)CN(C)C(=O)CN(C)C1=O [Compound 1295] ([NMeGly(cBu)]I[Sar][Sar][NMeCha][Sar][hPhe(3,5-F2-4-CF3)][Pro(4,4-F2)][Ac5c][NMeChg][NMeD]-Pyrrolidide; lactam N-11) — 56-fold lower, 0.5 nM
- CCC[C@H]1C(=O)N[C@@H]([C@@H](C)CC)C(=O)N(C)CC(=O)N(C)CC(=O)N(C)[C@@H](Cc2ccc(C)cc2)C(=O)N(C)CC(=O)N[C@@H](CCc2ccc(C(F)(F)F)c(Cl)c2)C(=O)N2CC(F)(F)C[C@H]2C(=O)NC2(CCCC2)C(=O)N(C)[C@@H](C2CCCCC2)C(=O)N(C)[C@H](C(=O)N2CCCC2)CC(=O)N1C [Compound 1296] ([NMeNva]I[Sar][Sar][NMePhe(4-Me)][Sar][hPhe(3-Cl-4-CF3)][Pro(4,4-F2)][Ac5c][NMeChg][NMeD]-Pyrrolidide; lactam N-11) — 47-fold lower, 0.59 nM
- CC[C@H](C)[C@@H]1NC(=O)[C@H](CC(F)(F)F)N(C)C(=O)C[C@@H](C(=O)N2CCCC2)N(C)C(=O)[C@H](C2CCCCC2)N(C)C(=O)C2(CCCC2)NC(=O)[C@@H]2CC(F)(F)CN2C(=O)[C@H](CCc2cc(F)c(C(F)(F)F)c(F)c2)NC(=O)CN(C)C(=O)[C@H](Cc2ccc(C(F)(F)F)cc2)N(C)C(=O)CN(C)C(=O)CN(C)C1=O [Compound 1303] ([NMeAbu(4,4,4-F3)]I[Sar][Sar][NMePhe(4-CF3)][Sar][hPhe(3,5-F2-4-CF3)][Pro(4,4-F2)][Ac5c][NMeChg][NMeD]-Pyrrolidide; lactam N-11) — 39-fold lower, 0.72 nM
- CCCC[C@@H]1NC(=O)[C@H](Cc2cccc(Br)c2F)NC(=O)CN(C)C(=O)[C@H](Cc2ccc(OC)cc2)N(C)C(=O)[C@@H]2CCN2C(=O)[C@H](C)N(C)C(=O)[C@H]([C@@H](C)CC)NC(=O)[C@H](CC)N(C)C(=O)C[C@@H](C(=O)N2CCCCC2)N(C)C(=O)[C@H](CC(C)C)NC(=O)C(C)(C)N(C)C1=O [Compound 1304] ([NMeAbu]I[NMeA][Aze][NMeY](Me)[Sar][X54][Nle][NMeAib]L[NMeD]-Piperidide; lactam N-11) — 3-fold higher, 85 nM
- CCCC[C@@H]1NC(=O)[C@H](Cc2ccc(F)cc2)NC(=O)CN(C)C(=O)[C@H](Cc2ccc(Cl)cc2)N(C)C(=O)CN(C)C(=O)CN(C)C(=O)[C@H]([C@@H](C)CC)NC(=O)[C@H](CC(C)C)N(C)C(=O)C[C@@H](C(=O)N2CCCCC2)N(C)C(=O)[C@H](CC(C)C)NC(=O)C(C)(C)N(C)C1=O [Compound 1305] ([NMeL]I[Sar][Sar][NMePhe(4-Cl)][Sar][Phe(4-F)][Nle][NMeAib]L[NMeD]-Piperidide; lactam N-11) — 8.6-fold higher, 240 nM
- CCC[C@H]1C(=O)N[C@@H]([C@@H](C)CC)C(=O)N(C)CC(=O)N(C)CC(=O)N(C)[C@@H](Cc2ccc(C)cc2)C(=O)N(C)CC(=O)N[C@@H](CCc2cc(F)c(C(F)(F)F)c(F)c2)C(=O)N2CC(F)(F)C[C@H]2C(=O)NC2(CCCC2)C(=O)N(C)[C@@H](C2CCCCC2)C(=O)N(C)[C@H](C(=O)N2CCCC2)CC(=O)N1C [Compound 1306] ([NMeNva]I[Sar][Sar][NMePhe(4-Me)][Sar][hPhe(3,5-F2-4-CF3)][Pro(4,4-F2)][Ac5c][NMeChg][NMeD]-Pyrrolidide; lactam N-11) — 56-fold lower, 0.5 nM

— patent US12371454B2, “Cyclic peptide compound having Kras inhibitory action” (priority 2019, dated 2025)
